Holding throughout (format): in vivo, rat
One data set concerns male rats. Put plainly: Penile erection study in male rats after oral administration (responding rats, ED50, erection episodes, penile erection index). Particulars: for responding rats, # / responding rats, %: 10 rats tested, 2 h observation; for copulation mounting behaviour: 0.0781-0.625 mg/kg. Here is the method: The purpose of this study was to compare the biological activity of compound 7a with that of sildenafil. In particular, the respective ED50 -value (ED=effective dose), erection episodes and penile erection indices of said compounds in the treatment of male rats were determined. The penile erection index is an established means of determining the erection promoting properties of a substance (see e.g. Ang, H. H., Sim, M. K., Pharm. Sci., 3, 117-119 (1997) and references cited therein).
In these experiments, the compounds 7a and sildenafil were administered to male rats orally. The doses used for both drugs were 0.0781, 0.1562, 0.3125 and 0.625 mg/kg body weight. Sildenafil was dissolved in distilled water, whereas 7a was dissolved in 1% HCl solution (aq). Control animals were administered with the vehicles only, i.e. distilled water or the 1% HCl solution. During the experiments, the rats were placed in glass cages for observation and had access to food and water. During 2 h after administration of the investigated compounds, the penile erection of the rats was monitored.

Data set [1] is described as follows: Preliminary toxicity studies in rats. Particulars: rat, in vivo, read-out: tolerated dose without any detrimental effects. On the procedure: (§1) Moreover, according to preliminary toxicity studies in rats, the compound 7a is tolerated up to a dose of about […] body weight without any detrimental effects. […] Thus, high doses of 7a provide a particularly efficient means for treatment of erectile dysfunction.

The subject of a further data set is rats. Put plainly: Preliminary toxicity studies in rats. On the procedure:
as §1

On to `CCCc1nn(C)c2c(=O)[nH]c(-c3cc(S(=O)(=O)N4CCN(C)CC4)ccc3OCC)nc12` [Sildenafil, reference compound], for which the “responding rats, #” value in the data set on male rats (dose 0.0781 mg/kg oral) is 3 #; in the data set with male rats (dose 0.1562 mg/kg oral) it was 3 #; in the data set on male rats (dose 0.3125 mg/kg oral), 5 #; in the data set with male rats (dose 0.6250 mg/kg oral), 7 #. In addition, the “responding rats, %” value with male rats (dose 0.0781 mg/kg oral) is 30%; in the data set on male rats (dose 0.1562 mg/kg oral) it was 30%; with male rats (dose 0.3125 mg/kg oral), 50%; with male rats (dose 0.6250 mg/kg oral), 70%. Besides, the copulation mounting behaviour entry in the data set with male rats (male rats, oral) was “no copulation mounting behaviour was observed”.

Regarding `CCCc1nn(C)c2c(=O)[nH]c(-c3cc(S(=O)(=O)N4CCN(C)CC4)cc4c3OCC4)nc12` [Compound 7a, 5-[2,3-dihydro-5-(4-methylpiperazin-1-ylsulfonyl)-7-benzofuryl]-1-methyl-3-propyl-6,7-dihydro-1H-pyrazolo[4,3-d]pyrimidin-7-one], the “responding rats, #” value was 3 # in the data set with male rats (dose 0.0781 mg/kg oral), 4 # in the data set on male rats (dose 0.1562 mg/kg oral), 4 # in the data set with male rats (dose 0.3125 mg/kg oral) and 8 # with male rats (dose 0.6250 mg/kg oral). For the same molecule, the “responding rats, %” value is given as 30% with male rats (dose 0.0781 mg/kg oral), 40% in the data set with male rats (dose 0.1562 mg/kg oral), 40% in the data set with male rats (dose 0.3125 mg/kg oral) and 80% with male rats (dose 0.6250 mg/kg oral). Moreover, the copulation mounting behaviour result in the data set with male rats (male rats, oral) is given as “no copulation mounting behaviour was observed”. In addition, the “number of erection episodes and penile erection indices (in words)” value with male rats (male rats, oral, 7a vs sildenafil, FIGS. 1 and 2) was “superior to sildenafil, especially at higher doses”. In addition, the “ED50 of 7a compared with sildenafil (in words)” value in the data set with male rats (male rats, oral, 7a vs sildenafil, 95% confidence interval) was “lower than that of sildenafil”. For the same molecule, the NOAEL in data set [1] was around 0.35 mg/kg. In addition, the “toxicity and side-effects (in words)” value with rats was “completely non-toxic and free from undesirable side-effects”.

(Values after patent publication US6242444A, “Compounds and pharmaceutical compositions containing the same” (The Jordanian Pharmaceutical Manufacturing and Medical …, priority 1999, dated 2001).)
